Values after ≈ are worked out from the molar mass of the structure shown.
Experiments:
Assay in all cases: MIC, agar dilution
Type in all cases: cell-based
B. subtilis PCI 219 = details: Bacillus subtilis, PCI219, Mueller-Hinton agar pH 7.2, 32° C., 18 hr, 10^6 cells/ml
Experimental: (§1) Minimum inhibitory concentrations (MICs) of the present series of cephalosporins were determined against 32 strains of test organisms by two-fold serial agar dilution method in Mueller-Hinton agar. Geometric means of MICs were calculated against six groups of the test organisms which are classified as follows and summarized in Table 1.
(§2) Medium; MuellerHinton agar (pH = 7.2)
(§3) Incubation temperature: 32° C., 18 hr
(§4) Inoculum size; 10^6 cells/ml

C. freundii GN 7391 = details: Citrobacter freundii, GN7391, Mueller-Hinton agar pH 7.2, 32° C., 18 hr, 10^6 cells/ml
Experimental: as §1, §2, §3, §4

C. terrigena IFO 12685 = details: Mueller-Hinton agar pH 7.2, 32° C., 18 hr, 10^6 cells/ml
Experimental: as §1, §2, §3, §4

E. cloacae IPM-12 = details: Enterobacter cloacae, IPM12, Mueller-Hinton agar pH 7.2, 32° C., 18 hr, 10^6 cells/ml
Experimental: as §1, §2, §3, §4

E. coli 255 = details: Escherichia coli, Mueller-Hinton agar pH 7.2, 32° C., 18 hr, 10^6 cells/ml
Experimental: as §1, §2, §3, §4

E. faecalis A9808 = details: Enterococcus faecalis, Mueller-Hinton agar pH 7.2, 32° C., 18 hr, 10^6 cells/ml
Experimental: as §1, §2, §3, §4

E. faecium A24817 = details: Enterococcus faecium, Mueller-Hinton agar pH 7.2, 32° C., 18 hr, 10^6 cells/ml
Experimental: as §1, §2, §3, §4

K. pneumoniae PCI 602 = details: Klebsiella pneumoniae, PCI602, Mueller-Hinton agar pH 7.2, 32° C., 18 hr, 10^6 cells/ml
Experimental: as §1, §2, §3, §4

M. luteus 1001 = details: Micrococcus luteus, Mueller-Hinton agar pH 7.2, 32° C., 18 hr, 10^6 cells/ml
Experimental: as §1, §2, §3, §4

M. morgani 1510/9 = details: Mueller-Hinton agar pH 7.2, 32° C., 18 hr, 10^6 cells/ml
Experimental: as §1, §2, §3, §4

M. morgani 1510 = details: Mueller-Hinton agar pH 7.2, 32° C., 18 hr, 10^6 cells/ml
Experimental: as §1, §2, §3, §4

P. aeruginosa A20599 = details: Pseudomonas aeruginosa, Mueller-Hinton agar pH 7.2, 32° C., 18 hr, 10^6 cells/ml
Experimental: as §1, §2, §3, §4

P. aeruginosa IPM-8 = details: Pseudomonas aeruginosa, IPM8, Mueller-Hinton agar pH 7.2, 32° C., 18 hr, 10^6 cells/ml
Experimental: as §1, §2, §3, §4

P. aeruginosa IPM-9 = details: Pseudomonas aeruginosa, IPM9, Mueller-Hinton agar pH 7.2, 32° C., 18 hr, 10^6 cells/ml
Experimental: as §1, §2, §3, §4

P. aeruginosa KKA 19 = details: Pseudomonas aeruginosa, KKA19, Mueller-Hinton agar pH 7.2, 32° C., 18 hr, 10^6 cells/ml
Experimental: as §1, §2, §3, §4

P. cepacia A21213 = details: Burkholderia cepacia, Mueller-Hinton agar pH 7.2, 32° C., 18 hr, 10^6 cells/ml
Experimental: as §1, §2, §3, §4

P. cepacia No. 651 = details: Burkholderia cepacia, Mueller-Hinton agar pH 7.2, 32° C., 18 hr, 10^6 cells/ml
Experimental: as §1, §2, §3, §4

P. mirabilis IFO-2849 = details: Proteus mirabilis, IFO2849, Mueller-Hinton agar pH 7.2, 32° C., 18 hr, 10^6 cells/ml
Experimental: as §1, §2, §3, §4

P. rettgeri IPM-14 = details: Providencia rettgeri, IPM14, Mueller-Hinton agar pH 7.2, 32° C., 18 hr, 10^6 cells/ml
Experimental: as §1, §2, §3, §4

P. vulgaris IPM-13 = details: Proteus vulgaris, IPM13, Mueller-Hinton agar pH 7.2, 32° C., 18 hr, 10^6 cells/ml
Experimental: as §1, §2, §3, §4

S. aureus 209P = details: Staphylococcus aureus; S. aureus 209P; Mueller-Hinton agar pH 7.2; 32° C., 18 hr; 10^6 cells/ml; read-out: MIC
Experimental: as §1, §2, §3, §4

S. aureus 4-1015 (MRSA) = details: Staphylococcus aureus, Mueller-Hinton agar pH 7.2, 32° C., 18 hr, 10^6 cells/ml
Experimental: as §1, §2, §3, §4

S. aureus IPM-24 (MRSA) = details: Staphylococcus aureus, Mueller-Hinton agar pH 7.2, 32° C., 18 hr, 10^6 cells/ml
Experimental: as §1, §2, §3, §4

S. epidermidis 11-1230 = details: Staphylococcus epidermidis, 111230, Mueller-Hinton agar pH 7.2, 32° C., 18 hr, 10^6 cells/ml
Experimental: as §1, §2, §3, §4

S. marcescens IPM-15 = details: Serratia marcescens, IPM15, Mueller-Hinton agar pH 7.2, 32° C., 18 hr, 10^6 cells/ml
Experimental: as §1, §2, §3, §4

S. marcescens IPM-16 = details: Serratia marcescens, IPM16, Mueller-Hinton agar pH 7.2, 32° C., 18 hr, 10^6 cells/ml
Experimental: as §1, §2, §3, §4

X. maltophilia GN 12873 = details: Stenotrophomonas maltophilia, GN12873, Mueller-Hinton agar pH 7.2, 32° C., 18 hr, 10^6 cells/ml
Experimental: as §1, §2, §3, §4

X. maltophilia No. 661 = details: Stenotrophomonas maltophilia, Mueller-Hinton agar pH 7.2, 32° C., 18 hr, 10^6 cells/ml
Experimental: as §1, §2, §3, §4

E. coli Juhl A15119 = details: Escherichia coli, JUHLA15119; E. coli Juhl A15119; Mueller-Hinton agar pH 7.2; 32° C., 18 hr; 10^6 cells/ml; read-out: MIC
Experimental: as §1
(§5) In vivo antibacterial activity was determined against three bacterial infections (S. aureus Smith, E. coli Juhl and P. aeruginosa A9843A) by intramuscular administration to mice just after the bacterial challenge. PD50 values are summarized in Table 3 in comparsion with the MIC values against the corresponding organisms.
as §2, §3, §4

P. aeruginosa A9843A = details: Pseudomonas aeruginosa, A9843A, 18 h, pH 7.2
Experimental: as §1, §5, §2, §3, §4

S. aureus Smith = details: Staphylococcus aureus; S. aureus Smith; Mueller-Hinton agar pH 7.2; 32° C., 18 hr; 10^6 cells/ml; read-out: MIC
Experimental: as §1, §5, §2, §3, §4

| SMILES | MIC (B. subtilis PCI 219) | MIC (C. freundii GN 7391) | MIC (C. terrigena IFO 12685) | MIC (E. cloacae IPM-12) | MIC (E. coli 255) | MIC (E. faecalis A9808) | MIC (E. faecium A24817) | MIC (K. pneumoniae PCI 602) | MIC (M. luteus 1001) | MIC (M. morgani 1510/9) | MIC (M. morgani 1510) | MIC (P. aeruginosa A20599) | MIC (P. aeruginosa IPM-8) | MIC (P. aeruginosa IPM-9) | MIC (P. aeruginosa KKA 19) | MIC (P. cepacia A21213) | MIC (P. cepacia No. 651) | MIC (P. mirabilis IFO-2849) | MIC (P. rettgeri IPM-14) | MIC (P. vulgaris IPM-13) | also measured |
| --- | --- | --- | --- | --- | --- | --- | --- | --- | --- | --- | --- | --- | --- | --- | --- | --- | --- | --- | --- | --- | --- |
| Nc1nc(/C(=N/O)C(=O)NC2C(=O)N3C(C(=O)[O-])=C(/C=C/C[n+]4cc5cc(O)c(O)cc5cn4)CS[C@H]23)cs1 (some centres unmarked) [Ik, 7-[(Z)-2-(2-Aminothiazol-4-yl)-2-hydroxyimino-acetamido]-3-[(E)-3-(6,7-dihydroxyphthalazin-2-io)-1-propen--1-yl]-3-cephem-4-carboxylate] | 0.4 mg/L (≈ 0.702 µM) | > 100 mg/L | 0.8 mg/L (≈ 1.4 µM) | > 100 mg/L | 0.2 mg/L (≈ 0.351 µM) | 6.3 mg/L (≈ 11.1 µM) | 50 mg/L (≈ 87.8 µM) | 0.05 mg/L (≈ 0.0878 µM) | 0.4 mg/L (≈ 0.702 µM) | 0.1 mg/L (≈ 0.176 µM) | 6.3 mg/L (≈ 11.1 µM) | > 100 mg/L | > 100 mg/L | > 100 mg/L | > 100 mg/L | > 100 mg/L | 100 mg/L (≈ 176 µM) | 0.2 mg/L (≈ 0.351 µM) | 1.6 mg/L (≈ 2.81 µM) | > 100 mg/L | MIC (S. aureus 209P): 0.8 mg/L (≈ 1.4 µM); MIC (S. aureus 4-1015 (MRSA)): 3.1 mg/L (≈ 5.44 µM); MIC (S. aureus IPM-24 (MRSA)): 12.5 mg/L (≈ 21.9 µM); MIC (S. epidermidis 11-1230): 1.6 mg/L (≈ 2.81 µM); MIC (S. marcescens IPM-15): > 100 mg/L; MIC (S. marcescens IPM-16): > 100 mg/L; MIC (X. maltophilia GN 12873): > 100 mg/L; MIC (X. maltophilia No. 661): > 100 mg/L; MIC (E. coli Juhl A15119): 0.4 mg/L (≈ 0.702 µM); MIC (P. aeruginosa A9843A): > 100 mg/L; MIC (S. aureus Smith): 0.8 mg/L (≈ 1.4 µM) |
| CC(C)(O/N=C(\C(=O)NC1C(=O)N2C(C(=O)[O-])=C(/C=C/C[n+]3cc4cc(O)c(O)cc4cn3)CS[C@H]12)c1csc(N)n1)C(=O)O (some centres unmarked) [Ii, 7-[(Z)-2-(2-Aminothiazol-4-yl)-2-(1-methyl-1-carboxyethoxy-imino)acetamido]-3-[(E)-3-(6,7-dihydroxyphthalazin-2-io)-1-propen-1-yl]-3-cephem-4-carboxylate] | 12.5 mg/L (≈ 19.1 µM) | 25 mg/L (≈ 38.1 µM) | 0.8 mg/L (≈ 1.22 µM) | 0.8 mg/L (≈ 1.22 µM) | 0.013 mg/L (≈ 0.0198 µM) | > 100 mg/L | > 100 mg/L | < 0.0063 mg/L | 3.1 mg/L (≈ 4.73 µM) | 0.05 mg/L (≈ 0.0763 µM) | 0.8 mg/L (≈ 1.22 µM) | 0.2 mg/L (≈ 0.305 µM) | 0.2 mg/L (≈ 0.305 µM) | > 100 mg/L | 0.8 mg/L (≈ 1.22 µM) | 0.8 mg/L (≈ 1.22 µM) | 1.6 mg/L (≈ 2.44 µM) | 0.025 mg/L (≈ 0.0381 µM) | 0.1 mg/L (≈ 0.153 µM) | 12.5 mg/L (≈ 19.1 µM) | MIC (S. aureus 209P): 25 mg/L (≈ 38.1 µM); MIC (S. aureus 4-1015 (MRSA)): > 100 mg/L; MIC (S. aureus IPM-24 (MRSA)): > 100 mg/L; MIC (S. epidermidis 11-1230): 25 mg/L (≈ 38.1 µM); MIC (S. marcescens IPM-15): > 100 mg/L; MIC (S. marcescens IPM-16): 1.6 mg/L (≈ 2.44 µM); MIC (X. maltophilia GN 12873): 100 mg/L (≈ 153 µM); MIC (X. maltophilia No. 661): 50 mg/L (≈ 76.3 µM); MIC (E. coli Juhl A15119): 0.2 mg/L (≈ 0.305 µM); MIC (P. aeruginosa A9843A): 0.1 mg/L (≈ 0.153 µM); MIC (S. aureus Smith): 25 mg/L (≈ 38.1 µM) |

Source: US5126336A, “Antibiotic C-3 catechol-substituted cephalosporin compounds, compositions and method of use thereof” (Bristol-Myers Squibb Company, priority 1990, dated 1992)
